Results: patent US12448366B2, “Solid forms of pralsetinib” (Rigel Pharmaceuticals, Inc., priority 2020, dated 2025)
Structures can show the parent of a compound that is named as a salt.

What was measured:
Assay type in all cases: physicochemical
[1] = Salt screening: XRPD of wet cake, after drying under vacuum at 50° C., after exposure to 97% relative humidity; conditions: for stability of salt solid form to humidification: 97% (>95%) relative humidity; for stability of salt solid form to humidification / stability of salt solid form to drying: XRPD; for stability of salt solid form to drying: vacuum at 50° C.; for XRPD Pattern Dry / XRPD Pattern Humid: salt screening; for XRPD Pattern Dry: after drying; for XRPD Pattern Humid: after humidity exposure
Method: Stock solutions of counter-ion were prepared in EtOH, MeOH, or EtOAc, depending on solubility. […] The solvent was allowed to evaporate at room temperature over the weekend and then placed at 50° C. under vacuum for 3 hours to remove any remaining solvent. Approximately 25 volumes solvent (0.6 mL) was added to each vial for screening. The three solvents selected were EtOH, EtOAc, and IPA:water (9:1 vol). […] XRPD analysis was done in three stages. XRPD of the wet cake was done for all samples. Unique solids were then left on XRPD plates and dried under vacuum at 50° C. XRPD of unique dry solids was then done. […] The humid environment was generated by placing a beaker of saturated potassium sulfate in water in a sealed container. All XRPD patterns were compared to counter ion XRPD patterns and known free base patterns. Where solids were not of sufficient quantity to isolate, the solvent was evaporated at room temperature, the material dried at 50° C. under active vacuum for 3 hours, and then reslurried at room temperature in either MtBE or IPAc overnight after heating to 45° C. for 30 minutes.

[2] = One week (7 days) slurry stability by XRPD and HPLC
[3] = Humidity exposure, 75% relative humidity at 40° C. for one week, XRPD

CO[C@]1(C(=O)N[C@@H](C)c2ccc(-n3cc(F)cn3)nc2)CC[C@H](c2nc(C)cc(Nc3cc(C)[nH]n3)n2)CC1 [Solid Form 8-A, pralsetinib]
stability of salt solid form to humidification ([1]; listed as Pattern 8-A): stable
stability of salt solid form to humidification ([1]; listed as maleate 8-A): stable
stability of salt solid form to drying ([1]; listed as Pattern 8-A): stable
stability of salt solid form to drying ([1]; listed as maleate 8-A): stable

CO[C@]1(C(=O)N[C@@H](C)c2ccc(-n3cc(F)cn3)nc2)CC[C@H](c2nc(C)cc(Nc3cc(C)[nH]n3)n2)CC1 (single isomer, unassigned) [Pattern 12-G+2 peaks, pralsetinib]
stability of salt solid form to humidification [1]: reverted to Pattern 12-G
stability of salt solid form to drying [1]: converted to Pattern 12-H

CO[C@]1(C(=O)N[C@@H](C)c2ccc(-n3cc(F)cn3)nc2)CC[C@H](c2nc(C)cc(Nc3cc(C)[nH]n3)n2)CC1 [Solid Form 6-A, pralsetinib]
stability of salt solid form to humidification ([1]; listed as Pattern 6-A): became amorphous with one peak

CO[C@]1(C(=O)N[C@@H](C)c2ccc(-n3cc(F)cn3)nc2)CC[C@H](c2nc(C)cc(Nc3cc(C)[nH]n3)n2)CC1 [gentisate, pralsetinib]
stability of salt solid form to humidification [1]: deliquesced

CO[C@]1(C(=O)N[C@@H](C)c2ccc(-n3cc(F)cn3)nc2)CC[C@@H](c2nc(C)cc(Nc3cc(C)[nH]n3)n2)CC1.Cl [HCl]
XRPD Pattern Dry ([1]; solvent EtOAc): 5-C + broad
XRPD Pattern Humid ([1]; solvent EtOAc): 5-C + trace
XRPD Pattern Humid ([1]; solvent IPA:water (9:1 vol)): 5-C + trace

CO[C@]1(C(=O)N[C@@H](C)c2ccc(-n3cc(F)cn3)nc2)CC[C@H](c2nc(C)cc(Nc3cc(C)[nH]n3)n2)CC1 [Pyruvate, pralsetinib]
stability of salt solid form to humidification [1]: changed form

CO[C@]1(C(=O)N[C@@H](C)c2ccc(-n3cc(F)cn3)nc2)CC[C@H](c2nc(C)cc(Nc3cc(C)[nH]n3)n2)CC1 [sulfates generated from the 1.1 eq. experiments] [pralsetinib]
stability of salt solid form to humidification [1]: changed form

CO[C@]1(C(=O)N[C@@H](C)c2ccc(-n3cc(F)cn3)nc2)CC[C@H](c2nc(C)cc(Nc3cc(C)[nH]n3)n2)CC1 [Solid Form 5-A, pralsetinib]
stability of salt solid form to humidification ([1]; listed as Form 5-A): deliquesced
stability of salt solid form to humidification ([1]; listed as Pattern 5-A): deliquesced
stability of salt solid form to humidification ([1]; listed as hydrochloride (5-A)): deliquesced
stability of salt solid form to drying ([1]; listed as Form 5-A): stable
stability of salt solid form to drying ([1]; listed as Pattern 5-A): stable

CO[C@]1(C(=O)N[C@@H](C)c2ccc(-n3cc(F)cn3)nc2)CC[C@H](c2nc(C)cc(Nc3cc(C)[nH]n3)n2)CC1 [sulfate, pralsetinib]
stability of salt solid form to drying [1]: changed

CO[C@]1(C(=O)N[C@@H](C)c2ccc(-n3cc(F)cn3)nc2)CC[C@H](c2nc(C)cc(Nc3cc(C)[nH]n3)n2)CC1 [Fumarate, pralsetinib]
stability of salt solid form to drying [1]: changed

CO[C@]1(C(=O)N[C@@H](C)c2ccc(-n3cc(F)cn3)nc2)CC[C@H](c2nc(C)cc(Nc3cc(C)[nH]n3)n2)CC1 [Solid Form 9-A, pralsetinib]
stability of salt solid form to humidification ([1]; listed as 9-A): stable
stability of salt solid form to humidification ([1]; listed as oxalate 9-A): stable
stability of salt solid form to drying ([1]; listed as 9-A): stable
stability of salt solid form to drying ([1]; listed as oxalate 9-A): stable

CO[C@]1(C(=O)N[C@@H](C)c2ccc(-n3cc(F)cn3)nc2)CC[C@H](c2nc(C)cc(Nc3cc(C)[nH]n3)n2)CC1 [Solid Form 10-A+B, pralsetinib]
stability of salt solid form to humidification ([1]; listed as 10-A+B): stable
stability of salt solid form to drying ([1]; listed as 10-A+B): stable

CO[C@]1(C(=O)N[C@@H](C)c2ccc(-n3cc(F)cn3)nc2)CC[C@H](c2nc(C)cc(Nc3cc(C)[nH]n3)n2)CC1 [Solid Form 5-B, pralsetinib]
stability of salt solid form to humidification ([1]; listed as Pattern 5-B): stable
stability of salt solid form to drying ([1]; listed as Form 5-B): converted to Form 5-C
stability of salt solid form to drying ([1]; listed as Pattern 5-B): dried to Pattern 5-C
stability slurrying 7 days in EtOAc ([2]; EtOAc, XRPD and HPLC, listed as Pattern 5-B): stable
stability slurrying 7 days in EtOH ([2]; EtOH, XRPD and HPLC, listed as Pattern 5-B): stable
stability slurrying 7 days in EtOH:water (95:5 vol) ([2]; EtOH:water (95:5 vol), XRPD and HPLC, listed as Pattern 5-B): stable

CO[C@]1(C(=O)N[C@@H](C)c2ccc(-n3cc(F)cn3)nc2)CC[C@H](c2nc(C)cc(Nc3cc(C)[nH]n3)n2)CC1 [Solid Form 4-B, pralsetinib]
stability of salt solid form to humidification ([1]; listed as Pattern 4-B): stable

CO[C@]1(C(=O)N[C@@H](C)c2ccc(-n3cc(F)cn3)nc2)CC[C@H](c2nc(C)cc(Nc3cc(C)[nH]n3)n2)CC1 [saccharine salt, pralsetinib]
stability of salt solid form to humidification [1]: changed form

CO[C@]1(C(=O)N[C@@H](C)c2ccc(-n3cc(F)cn3)nc2)CC[C@H](c2nc(C)cc(Nc3cc(C)[nH]n3)n2)CC1 [hydrochloride, pralsetinib]
stability of salt solid form to humidification [1]: deliquesced
stability on exposure to 75% relative humidity at 40° C. ([3]; one week / 7 days, XRPD, listed as HCl salt): stable

CO[C@]1(C(=O)N[C@@H](C)c2ccc(-n3cc(F)cn3)nc2)CC[C@H](c2nc(C)cc(Nc3cc(C)[nH]n3)n2)CC1 [Solid Form 12-C, pralsetinib]
stability of salt solid form to drying ([1]; listed as Pattern 12-C): stable

CO[C@]1(C(=O)N[C@@H](C)c2ccc(-n3cc(F)cn3)nc2)CC[C@H](c2nc(C)cc(Nc3cc(C)[nH]n3)n2)CC1 [Solid Form 12-D, pralsetinib]
stability of salt solid form to drying ([1]; listed as Pattern 12-D): Pattern 12-E

CO[C@]1(C(=O)N[C@@H](C)c2ccc(-n3cc(F)cn3)nc2)CC[C@H](c2nc(C)cc(Nc3cc(C)[nH]n3)n2)CC1 [Solid Form 12-B, pralsetinib]
stability of salt solid form to drying ([1]; listed as Pattern 12-B): stable

CO[C@]1(C(=O)N[C@@H](C)c2ccc(-n3cc(F)cn3)nc2)CC[C@H](c2nc(C)cc(Nc3cc(C)[nH]n3)n2)CC1 [Solid Form 5-C, pralsetinib]
stability of salt solid form to humidification ([1]; listed as Form 5-C): stable

CS(=O)(=O)O [MSA]
XRPD Pattern Dry ([1]; solvent IPA:water (9:1 vol)): 2-B + extra

COC1(C(=O)NC(C)c2ccc(-n3cc(F)cn3)nc2)CCC(c2nc(C)cc(Nc3cc(C)[nH]n3)n2)CC1.Cl (stereo not shown) [HCl 5-B]
Stability 7-day slurry [2]: Stable
Stability 40° C./75% RH ([3]; XRPD pattern after exposure): Stable

CO[C@]1(C(=O)N[C@@H](C)c2ccc(-n3cc(F)cn3)nc2)CC[C@H](c2nc(C)cc(Nc3cc(C)[nH]n3)n2)CC1 [citrate, pralsetinib]
stability of salt solid form to humidification [1]: deliquesced
stability of salt solid form to humidification ([1]; listed as Citrate): deliquesced

CO[C@]1(C(=O)N[C@@H](C)c2ccc(-n3cc(F)cn3)nc2)CC[C@H](c2nc(C)cc(Nc3cc(C)[nH]n3)n2)CC1 [Solid Form 1-B, pralsetinib]
stability of salt solid form to humidification ([1]; listed as solid form 1-B): converted to Pattern 1-C

CO[C@]1(C(=O)N[C@@H](C)c2ccc(-n3cc(F)cn3)nc2)CC[C@H](c2nc(C)cc(Nc3cc(C)[nH]n3)n2)CC1 [Solid Form 4-A, pralsetinib]
stability of salt solid form to humidification ([1]; listed as Pattern 4-A): stable
stability of salt solid form to drying ([1]; listed as Pattern 4-A): Pattern 4-C

CO[C@]1(C(=O)N[C@@H](C)c2ccc(-n3cc(F)cn3)nc2)CC[C@H](c2nc(C)cc(Nc3cc(C)[nH]n3)n2)CC1 [Solid Form 1-A, pralsetinib]
stability of salt solid form to humidification ([1]; listed as solid form 1-A): peak shift
